Data taken from patent US4556715A, “Nicotinic acid derivatives” (Kyorin Pharmaceutical Co., Ltd., priority 1980, dated 1985).
Like-named read-outs stand apart in the source and are kept apart here.

Key:
[1] = test system: serum and liver lipid levels in rats; assay: Serum and liver lipid levels and relative liver weight in rats (100 mg/kg, 10 days); type: in vivo, Male rats of the Wistar strain; conditions: for response vs control in vivo at 100 mg/kg: Rattus norvegicus, po; for response vs control in vivo at 100 mg/kg / Relative liver weight, relative to Control (100): in parentheses, Control = (100); for Liver lipid levels Ch / Liver lipid levels PL / Liver lipid levels TG / Relative liver weight / Serum lipid levels Ch / Serum lipid levels PL / Serum lipid levels TG: Mean ± S.E. (n = 9)
Outline: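 Male Wistar rats (160-180 g) on stock diet were dosed orally once daily at 100 mg/kg in 0.5% CMC for 10 days; controls got vehicle. Sacrifice 4 hr after last dose with diet withdrawn; liver weighed. Serum and liver Ch, TG and PL measured colorimetrically after lipid extraction.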

[2] = test system: serum and liver lipid levels in rats; assay: Serum and liver lipid levels and relative liver weight in rats (25 mg/kg, 10 days); type: in vivo, male Wistar rats; conditions: Table 4; for Liver lipid levels Ch / Liver lipid levels PL / Liver lipid levels TG / Relative liver weight / Serum lipid levels Ch / Serum lipid levels PL / Serum lipid levels TG: 25 mg/kg p.o. 10 days, Mean ± S.E. (n = 7); for Liver lipid levels Ch, relative to Control (100) / Liver lipid levels PL, relative to Control (100) / Liver lipid levels TG, relative to Control (100) / Relative liver weight, relative to Control (100) / Serum lipid levels Ch, relative to Control (100) / Serum lipid levels PL, relative to Control (100) / Serum lipid levels TG, relative to Control (100): in parentheses
Protocol: (3) The present compounds and KCD-232 were orally given to male Wistar rats weighing 160-180 g once a day at a dose of 25 mg/kg b.w. for 10 days. Rats were subjected to fast for 4 hr immediately after the last administration of compounds, thereafter they were sacrificed by decapitation and blood was collected, clotted and centrifuged to obtain serum. The liver was removed quickly and weighed. Total lipids were extracted from the serum and liver, and then the levels of total Ch, TG and PL were determined with colorimetric methods.

in vivo = conditions: mouse, po, p o, male ICR mice
From the text: The present compounds were given to 6 week-old male mice of the ICR strain and their acute toxicity was examined.

[3] = test system: serum and liver lipid levels in normal rats; assay: Effects on relative liver weight, serum and liver lipid levels in normal rats (100 mg/kg, 7 days); type: in vivo, Male Wistar strain rats; conditions: for Liver lipid levels Ch / Liver lipid levels PL / Liver lipid levels TG / Serum lipid levels Ch / Serum lipid levels PL / Serum lipid levels TG / Relative liver weight / Liver lipid levels Ch, relative to Control (100) / Liver lipid levels PL, relative to Control (100) / Liver lipid levels TG, relative to Control (100) / Relative liver weight, relative to Control (100) / Serum lipid levels Ch, relative to Control (100) / Serum lipid levels PL, relative to Control (100) / Serum lipid levels TG, relative to Control (100): Table 1; for Liver lipid levels Ch / Liver lipid levels PL / Liver lipid levels TG / Serum lipid levels Ch / Serum lipid levels PL / Serum lipid levels TG: fasted overnight; for Liver lipid levels Ch / Liver lipid levels PL / Liver lipid levels TG / Serum lipid levels Ch / Serum lipid levels PL / Serum lipid levels TG / Relative liver weight: mean ± S.E. (n = 6); for Liver lipid levels Ch, relative to Control (100) / Liver lipid levels PL, relative to Control (100) / Liver lipid levels TG, relative to Control (100) / Relative liver weight, relative to Control (100) / Serum lipid levels Ch, relative to Control (100) / Serum lipid levels PL, relative to Control (100) / Serum lipid levels TG, relative to Control (100): in parentheses
Protocol: (1) Effects on relative liver weight, serum and liver lipid levels in normal rats
Male Wistar strain rats, weighing 180-210 g were orally administered the present compounds (X=Cl, n1 =2, 3, 4 and n2 =1) and 4-(4-chlorobenzyloxy)benzyl nicotinate (KCD-232), being X=Cl, n1 =1, n2 =1, respectively, which were suspended in 0.5% carboxymethyl cellulose (CMC) solution once a day at a dose of 100 mg/kg b.w. for 7 days. The last administration was occured in rats fasted overnight. At 4 hr later blood was withdrawn from jugular vein, clotted and centrifuged to obtain serum. The liver was rapidly removed and weighed. Total lipids were extracted from the serum and liver, and cholesterol (Ch), triglycerides (TG) and phospholipids (PL) levels were determined.

[4] = 240 h, Table 2, read-out: Liver lipid levels PL, relative to Control (100)
[5] = Table 2, read-out: Liver lipid levels Ch, relative to Control (100)
[6] = Table 2, read-out: Liver lipid levels TG, relative to Control (100)
[7] = Table 2, read-out: Serum lipid levels Ch, relative to Control (100)
[8] = Table 2, read-out: Serum lipid levels PL, relative to Control (100)
[9] = Table 2, read-out: Serum lipid levels TG, relative to Control (100)
[10] = Table 2, 100 mg/kg p.o. 10 days
[11] = Table 3, 100 mg/kg p.o. 10 days

O=C(OCc1ccc(OCc2ccc(Cl)cc2)cc1)c1cccnc1 [KCD-232, 4-(4-chlorobenzyloxy)benzyl nicotinate, reference compound]
response vs control in vivo at 100 mg/kg [1, 4]: 99.2%
response vs control in vivo at 100 mg/kg ([1]; 240 h, Table 3, read-out: Liver lipid levels PL, relative to Control (100)): 99.7%
response vs control in vivo at 100 mg/kg [1, 5]: 104%
response vs control in vivo at 100 mg/kg [1, 6]: 63.3%
response vs control in vivo at 100 mg/kg [1, 7]: 72.5%
response vs control in vivo at 100 mg/kg [1, 8]: 67.3%
response vs control in vivo at 100 mg/kg [1, 9]: 32.7%
response vs control in vivo at 100 mg/kg ([1]; Table 3, read-out: Liver lipid levels Ch, relative to Control (100)): 103%
response vs control in vivo at 100 mg/kg ([1]; Table 3, read-out: Liver lipid levels TG, relative to Control (100)): 65.2%
response vs control in vivo at 100 mg/kg ([1]; Table 3, read-out: Serum lipid levels Ch, relative to Control (100)): 70%
response vs control in vivo at 100 mg/kg ([1]; Table 3, read-out: Serum lipid levels PL, relative to Control (100)): 62.1%
response vs control in vivo at 100 mg/kg ([1]; Table 3, read-out: Serum lipid levels TG, relative to Control (100)): 36.1%
Liver lipid levels Ch [1, 10]: 3.15 ± 0.08 mg/g liver
Liver lipid levels PL [1, 10]: 37.8 ± 0.6 mg/g liver
Liver lipid levels TG [1, 10]: 4.00 ± 0.28 mg/g liver
Relative liver weight [1, 10]: 4.05 ± 0.05 g/100 g b.w.
Serum lipid levels Ch [1, 10]: 62.8 ± 3 mg/dL
Serum lipid levels PL [1, 10]: 100 ± 4.6 mg/dL
Serum lipid levels TG [1, 10]: 40.5 ± 2.7 mg/dL
Relative liver weight, relative to Control (100) ([1]; Table 2): 105
Liver lipid levels Ch [1, 11]: 2.39 ± 0.07 mg/g liver
Liver lipid levels PL [1, 11]: 36.1 ± 0.4 mg/g liver
Liver lipid levels TG [1, 11]: 4.67 ± 0.42 mg/g liver
Relative liver weight [1, 11]: 3.71 ± 0.07 g/100 g b.w.
Serum lipid levels Ch [1, 11]: 68.3 ± 3.1 mg/dL
Serum lipid levels PL [1, 11]: 96.8 ± 3.4 mg/dL
Serum lipid levels TG [1, 11]: 45.3 ± 3.5 mg/dL
Relative liver weight, relative to Control (100) ([1]; Table 3): 98
Liver lipid levels Ch [2]: 2.98 ± 0.08 mg/g liver
Liver lipid levels PL [2]: 40.2 ± 0.6 mg/g liver
Liver lipid levels TG [2]: 4.36 ± 0.65 mg/g liver
Relative liver weight [2]: 3.72 ± 0.07 g/100 g b.w.
Serum lipid levels Ch [2]: 63.5 ± 3.1 mg/dL
Serum lipid levels PL [2]: 89 ± 4.4 mg/dL
Serum lipid levels TG [2]: 31.3 ± 2.9 mg/dL
Liver lipid levels Ch, relative to Control (100) [2]: 91.7
Liver lipid levels PL, relative to Control (100) [2]: 105.8
Liver lipid levels TG, relative to Control (100) [2]: 58.6
Relative liver weight, relative to Control (100) [2]: 105
Serum lipid levels Ch, relative to Control (100) [2]: 81.4
Serum lipid levels PL, relative to Control (100) [2]: 82.3
Serum lipid levels TG, relative to Control (100) [2]: 82.8
LD50 (in vivo): 345 mg/kg
Liver lipid levels Ch ([3]; 100 mg/kg p.o. 7 days): 3.88 ± 0.12 mg/g liver
Liver lipid levels PL ([3]; 100 mg/kg p.o. 7 days): 36.6 ± 0.7 mg/g liver
Liver lipid levels TG ([3]; 100 mg/kg p.o. 7 days): 21.45 ± 2.23 mg/g liver
Serum lipid levels Ch ([3]; 100 mg/kg p.o. 7 days): 58.5 ± 5 mg/dL
Serum lipid levels PL ([3]; 100 mg/kg p.o. 7 days): 77.7 ± 6.4 mg/dL
Serum lipid levels TG ([3]; 100 mg/kg p.o. 7 days): 23.4 ± 2.2 mg/dL
Relative liver weight ([3]; 100 mg/kg p.o. 7 days): 3.20 ± 0.10 g/100 g b.w.
Liver lipid levels Ch, relative to Control (100) [3]: 110
Liver lipid levels PL, relative to Control (100) [3]: 99
Liver lipid levels TG, relative to Control (100) [3]: 291
Relative liver weight, relative to Control (100) [3]: 104
Serum lipid levels Ch, relative to Control (100) [3]: 77
Serum lipid levels PL, relative to Control (100) [3]: 76
Serum lipid levels TG, relative to Control (100) [3]: 69
liver TG level (in words) ([3]; last administration in rats fasted overnight): remarkably rose liver TG level

O=C(OCc1ccc(OCCCc2ccc(Cl)cc2)cc1)c1cccnc1 [n1=3, n2=1, 4-[3-(4-Chlorophenyl)propoxy]benzyl nicotinate]
lipid lowering effects compared with KCD-232 (in words) ([1]; 100 mg/kg p.o. 10 days): the lipid lowering effects were superior to that of KCD-232
response vs control in vivo at 100 mg/kg [1, 4]: 104%
response vs control in vivo at 100 mg/kg [1, 5]: 101%
response vs control in vivo at 100 mg/kg [1, 6]: 59.3%
response vs control in vivo at 100 mg/kg [1, 7]: 71.9%
response vs control in vivo at 100 mg/kg [1, 8]: 65.2%
response vs control in vivo at 100 mg/kg [1, 9]: 24.7%
Liver lipid levels Ch [1, 10]: 3.09 ± 0.15 mg/g liver
Liver lipid levels PL [1, 10]: 39.8 ± 0.8 mg/g liver
Liver lipid levels TG [1, 10]: 3.75 ± 0.27 mg/g liver
Relative liver weight [1, 10]: 3.89 ± 0.10 g/100 g b.w.
Serum lipid levels Ch [1, 10]: 62.3 ± 3.1 mg/dL
Serum lipid levels PL [1, 10]: 96.8 ± 5 mg/dL
Serum lipid levels TG [1, 10]: 30.6 ± 2.8 mg/dL
Relative liver weight, relative to Control (100) ([1]; Table 2): 101
Liver lipid levels Ch [2]: 3.16 ± 0.13 mg/g liver
Liver lipid levels PL [2]: 40.3 ± 0.9 mg/g liver
Liver lipid levels TG [2]: 3.97 ± 0.35 mg/g liver
Relative liver weight [2]: 3.84 ± 0.13 g/100 g b.w.
Serum lipid levels Ch [2]: 60.3 ± 5.3 mg/dL
Serum lipid levels PL [2]: 83.2 ± 8.5 mg/dL
Serum lipid levels TG [2]: 24.2 ± 2.8 mg/dL
Liver lipid levels Ch, relative to Control (100) [2]: 97.2
Liver lipid levels PL, relative to Control (100) [2]: 106.1
Liver lipid levels TG, relative to Control (100) [2]: 53.4
Relative liver weight, relative to Control (100) [2]: 109
Serum lipid levels Ch, relative to Control (100) [2]: 76.9
Serum lipid levels PL, relative to Control (100) [2]: 76.9
Serum lipid levels TG, relative to Control (100) [2]: 64.0
LD50 (in vivo): > 4000 mg/kg
serum Ch, TG and PL (in words) ([3]; 100 mg/kg p.o. 7 days, compared with control): significantly reduced serum Ch, TG and PL
Liver lipid levels Ch ([3]; 100 mg/kg p.o. 7 days): 3.57 ± 0.15 mg/g liver
Liver lipid levels PL ([3]; 100 mg/kg p.o. 7 days): 34.1 ± 1.8 mg/g liver
Liver lipid levels TG ([3]; 100 mg/kg p.o. 7 days): 5.95 ± 1.83 mg/g liver
Serum lipid levels Ch ([3]; 100 mg/kg p.o. 7 days): 48.4 ± 5.4 mg/dL
Serum lipid levels PL ([3]; 100 mg/kg p.o. 7 days): 64.4 ± 5.2 mg/dL
Serum lipid levels TG ([3]; 100 mg/kg p.o. 7 days): 18 ± 2.5 mg/dL
Relative liver weight ([3]; 100 mg/kg p.o. 7 days): 3.20 ± 0.06 g/100 g b.w.
Liver lipid levels Ch, relative to Control (100) [3]: 101
Liver lipid levels PL, relative to Control (100) [3]: 92
Liver lipid levels TG, relative to Control (100) [3]: 81
Relative liver weight, relative to Control (100) [3]: 104
Serum lipid levels Ch, relative to Control (100) [3]: 64
Serum lipid levels PL, relative to Control (100) [3]: 63
Serum lipid levels TG, relative to Control (100) [3]: 53
